Reference: ChEMBL document CHEMBL1201862, “PubChem BioAssay data set” (2004)
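The compound was tested at five concentrations on cells cultured in 96-well plates, with a 48-hour exposure period. At the GI50, growth is halved.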 Activity calls are given as the source filed them. Cut-off read from the data, not from the text of the source: active = GI50 up to about 1.1 µM and inactive = higher.

Columns and labels:
Assay in all cases: DTP human tumour cell line panel, 48 h
[1] = tested on: Hs-578T
[2] = tested on: DMS-114
[3] = tested on: DMS-273
[4] = tested on: HOP-18
[5] = tested on: LXFL 529
[6] = tested on: M19-MEL
[7] = tested on: SNB-78
[8] = tested on: XF498
[9] = tested on: RXF 631

C=C(Cl)C(Cl)(CBr)CCC(Br)C(C)(C)Br (centres undefined)
GI50 [1]: 2.96 µM (inactive)

Cn1c(=O)nc2n(-c3cccc(Br)c3)c3ccccc3nc-2c1=O
GI50 [2]: 2.04 µM (inactive)
GI50 [3]: 3.1 µM (inactive)
GI50 [4]: 5.9 µM (inactive)
GI50 [5]: 6.1 µM (inactive)
GI50 [6]: 1.43 µM (inactive)
GI50 [7]: 12.2 µM (inactive)
GI50 [8]: 5.36 µM (inactive)

c1ccc2cc3c(cc2c1)OP1(Oc2cccc4cccnc24)(O3)Oc2cc3ccccc3cc2O1
GI50 [2]: 1.79 µM (inactive)
GI50 [3]: 3.49 µM (inactive)
GI50 [4]: 9.48 µM (inactive)
GI50 [6]: 9.89 µM (inactive)
GI50 [7]: 26.4 µM (inactive)
GI50 [8]: 3.71 µM (inactive)

CC(C)=CCC\C(C)=C/C=C/C(C)=C\C=C\C(C)=C/C=C/C=C(C)\C=C\C=C(C)/C=C/C=C(/C)CCC=C(C)C
GI50 [1]: > 100 µM (inactive)

N#Cc1c(Cl)c2cccnc2n2c1nc1ccccc12
GI50 [1]: 2.79 µM (inactive)

CCOC(=O)C1(C(=O)OCC)OC(=O)NC2=C1CCCC2
GI50 [2]: > 100 µM (inactive)
GI50 [3]: > 100 µM (inactive)
GI50 [4]: 19.5 µM (inactive)
GI50 [5]: > 100 µM (inactive)
GI50 [6]: > 100 µM (inactive)
GI50 [7]: > 100 µM (inactive)
GI50 [8]: > 100 µM (inactive)

ClCCN1CCOC1=C1C=CC=C1
GI50 [1]: > 100 µM (inactive)

O=C(Cc1ccccc1)NN1C(=O)C(Cl)C1c1cc(Br)cc(Br)c1O (centres undefined)
GI50 [2]: 3.97 µM (inactive)
GI50 [3]: 12.5 µM (inactive)
GI50 [4]: 7.83 µM (inactive)
GI50 [5]: 13.5 µM (inactive)
GI50 [6]: 15.8 µM (inactive)
GI50 [7]: 24.4 µM (inactive)
GI50 [8]: 19.8 µM (inactive)

CC(=O)OC1=CC2(OC(C)=O)CC(C)(C)C1C1C(=O)C=CC(=O)C12 (centres undefined)
GI50 [2]: > 100 µM (inactive)
GI50 [3]: > 100 µM (inactive)
GI50 [5]: > 100 µM (inactive)
GI50 [6]: > 100 µM (inactive)
GI50 [9]: > 100 µM (inactive)
GI50 [7]: > 100 µM (inactive)
GI50 [8]: > 100 µM (inactive)

COc1ccc2cc(C(=O)CCC(=O)O)ccc2c1
GI50 [1]: > 100 µM (inactive)

Cc1ccc(C(=O)C(C2=Nc3nnc(N)n3C2=O)C2=Nc3nnc(N)n3C2=O)cc1
GI50 [2]: > 100 µM (inactive)
GI50 [3]: > 100 µM (inactive)
GI50 [5]: > 100 µM (inactive)
GI50 [6]: > 100 µM (inactive)
GI50 [7]: > 100 µM (inactive)
GI50 [8]: > 100 µM (inactive)

COc1ccc2c(c1)C(=O)c1ccccc1C2
GI50 [1]: 44.4 µM (inactive)

O=C(Oc1cccc(Cl)c1)c1cc2cc(CCl)ccc2oc1=O
GI50 [1]: 59.8 µM (inactive)

COc1ccc2c(c1)c(=O)c1c(NCCN(C)C)ccc3c(=O)n(CCN(C)C)c(=O)n2c31
GI50 [1]: 0.178 µM (active)

CC(C)NC(=O)OCc1c2c(n(C)c1COC(=O)NC(C)C)-c1cc(Cl)c(Cl)cc1CC2
GI50 [1]: 32.1 µM (inactive)

CC(C)N/C(N)=N/C#N
GI50 [2]: > 100 µM (inactive)
GI50 [4]: > 100 µM (inactive)
GI50 [5]: > 100 µM (inactive)
GI50 [6]: > 100 µM (inactive)
GI50 [7]: > 100 µM (inactive)
GI50 [8]: > 100 µM (inactive)

C=C1C[C@]23CC[C@@H]4C(CO)(CO)CC(=O)C[C@]4(C)[C@@H]2C(O)C[C@H]1C3 (some centres undefined)
GI50 [1]: > 100 µM (inactive)

C=C(C)C(=O)CC[C@@H](C)[C@H]1[C@@H](OC2OC(CO)C(O)C(O)C2O)C[C@@]2(C)[C@@H]3C[C@H](O)C4C(C)(C)[C@@H](OC5OC(CO)C(O)C(O)C5O)CC[C@@]45C[C@@]35CC[C@]12C (some centres undefined)
GI50 [1]: 91 µM (inactive)

O=S(=O)(O)c1cc(S(=O)(=O)O)c2c(Nc3ccnc4ccccc34)ccc(S(=O)(=O)O)c2c1
GI50 [1]: > 100 µM (inactive)

CCOC(=O)c1cc(-c2ccc(OC)cc2)c([N+](=O)[O-])[nH]1
GI50 [1]: > 10 µM (inactive)

NC(=O)N1N=C2c3ccccc3OC[C@H]2[C@@H]1c1ccccc1
GI50 [2]: 7.53 µM (inactive)
GI50 [3]: 9.1 µM (inactive)
GI50 [4]: 18.7 µM (inactive)
GI50 [5]: 31 µM (inactive)
GI50 [6]: 49.7 µM (inactive)
GI50 [7]: > 38.5 µM (inactive)
GI50 [8]: 10.7 µM (inactive)

O=[N+]([O-])c1ccc(-n2nnc(C3=NCCCN3)c2-c2ccc(Cl)cc2)cc1
GI50 [3]: > 100 µM (inactive)
GI50 [4]: > 100 µM (inactive)
GI50 [5]: > 100 µM (inactive)
GI50 [6]: 69.5 µM (inactive)
GI50 [7]: > 100 µM (inactive)
GI50 [8]: > 100 µM (inactive)

O=Cc1ccc2c(c1-c1c(C=O)ccc3c1OCO3)OCO2
GI50 [2]: > 100 µM (inactive)
GI50 [3]: > 100 µM (inactive)
GI50 [4]: > 100 µM (inactive)
GI50 [5]: > 100 µM (inactive)
GI50 [6]: > 100 µM (inactive)
GI50 [7]: > 100 µM (inactive)

Cc1ccc(S(=O)(=O)NC(=O)NCC(N)=O)cc1
GI50 [1]: > 100 µM (inactive)

CC(=O)Nc1ccc(S(=O)(=O)/N=C2\C=CC(=O)c3ccccc32)cc1
GI50 [1]: 7.64 µM (inactive)

CC(=O)OC1CCC2(C)C(=CCC3C2CCC2(C)C3CC3OC4(CCC(C)CN4)C(C)C32)C1 (centres undefined)
GI50 [1]: > 100 µM (inactive)

O=C(O)/C(Cc1c[nH]nn1)=N\O
GI50 [1]: > 100 µM (inactive)

CN(CCCNC(=O)c1cn(C)c2c1ccc1ccccc12)CCCNC(=O)c1cn(C)c2c1ccc1ccccc12
GI50 [1]: 1.44 µM (inactive)

CC1SC2=NC3=C(c4ccccc4C3=O)C(c3ccc(Br)cc3)N2C1=O (centres undefined)
GI50 [2]: 31.2 µM (inactive)
GI50 [3]: > 100 µM (inactive)
GI50 [5]: 53 µM (inactive)
GI50 [6]: 56.9 µM (inactive)
GI50 [8]: 43.8 µM (inactive)

CCc1cccc(C)c1NC(=O)C(=O)Cc1nc2ccccc2o1
GI50 [2]: > 100 µM (inactive)
GI50 [4]: > 100 µM (inactive)
GI50 [5]: > 100 µM (inactive)
GI50 [6]: > 100 µM (inactive)
GI50 [7]: > 100 µM (inactive)
GI50 [8]: > 100 µM (inactive)

N#CCCCCCOCCOCCOCCOCCOCCCCCC#N
GI50 [2]: > 100 µM (inactive)
GI50 [3]: > 100 µM (inactive)
GI50 [4]: > 100 µM (inactive)
GI50 [5]: > 100 µM (inactive)
GI50 [6]: > 100 µM (inactive)
GI50 [9]: > 100 µM (inactive)

COC(=O)C1CC23C=CCN4CC(C2C)C2(c5ccccc5NC12)C43 (centres undefined)
GI50 [1]: > 100 µM (inactive)

C#CC1(O)c2ccccc2C(=O)c2ccccc21
GI50 [3]: > 100 µM (inactive)
GI50 [4]: > 100 µM (inactive)
GI50 [5]: > 100 µM (inactive)
GI50 [6]: > 100 µM (inactive)
GI50 [7]: 35.9 µM (inactive)
GI50 [8]: 84.7 µM (inactive)

O=C(OCc1ccccc1)N1CCN(C(=O)OCc2ccccc2)CCN(C(=O)OCc2ccccc2)CCN(C(=O)OCc2ccccc2)CCN(C(=O)OCc2ccccc2)CC1
GI50 [1]: 39.3 µM (inactive)

CC(C(=O)OCc1ccccc1)(c1ccco1)N1C(=O)OC(c2ccccc2)C1c1ccccc1 (centres undefined)
GI50 [1]: > 100 µM (inactive)

Nc1nc2ncc(SCc3ccc(C(=O)NC(CCC(=O)O)C(=O)O)cc3)cc2c(=O)[nH]1 (centres undefined)
GI50 [1]: > 100 µM (inactive)

Cc1ccc(C(=O)N/N=C(\N=N\c2ccc([N+](=O)[O-])cc2)c2ccc(N(CCC#N)CCC#N)cc2C)cc1
GI50 [1]: 50.1 µM (inactive)

CCN(CC)CCNc1ccc2nnn3c4ccc(OC)cc4c(=O)c1c23
GI50 [2]: 8.89 µM (inactive)
GI50 [4]: 0.507 µM (active)
GI50 [5]: 9.62 µM (inactive)
GI50 [6]: 13.5 µM (inactive)
GI50 [9]: 3.83 µM (inactive)
GI50 [7]: 10.7 µM (inactive)

O=C(c1cccs1)N1CCCN(C(=O)c2cccs2)C1=S
GI50 [1]: > 100 µM (inactive)

O=C1C2C(C(=O)N1O)N(Cc1ccccc1)C(=O)N2Cc1ccccc1 (centres undefined)
GI50 [2]: > 100 µM (inactive)
GI50 [5]: > 100 µM (inactive)
GI50 [6]: > 100 µM (inactive)
GI50 [7]: > 100 µM (inactive)
GI50 [8]: > 100 µM (inactive)

CC(C)C(=O)[C@@]1(C)SC[C@H]2CCN=C21
GI50 [1]: > 100 µM (inactive)

Cc1ccc(S(=O)(=O)NC(=O)NC2=NC(C)(C)N(c3ccc(Cl)c(Cl)c3)C(N)=N2)cc1
GI50 [1]: 47.8 µM (inactive)

CCOC(=O)CC1=N/C(=N/C(=N)N[N+](=O)[O-])SC1
GI50 [3]: > 100 µM (inactive)
GI50 [4]: > 100 µM (inactive)
GI50 [5]: > 100 µM (inactive)
GI50 [6]: > 100 µM (inactive)
GI50 [7]: > 100 µM (inactive)

Cc1c(CCCl)c(N=[N+]=[N-])n2c(nc3ccccc32)c1C#N
GI50 [1]: 0.986 µM (active)

CO/N=C(\C)c1ccc(Nc2nc3ccccc3c3occc23)cc1
GI50 [1]: 12.5 µM (inactive)

N#Cc1ccc(/C=[N+](/C=c2ccc(=C=[N-])cc2)N(CCO)C2=NCCN2)cc1
GI50 [1]: > 100 µM (inactive)

CCOC(=O)c1ccc(Nc2cnc3cc(C(F)(F)F)ccc3n2)cc1
GI50 [1]: > 100 µM (inactive)

O=C1O[C@@H](c2ccccc2)C[C@H]1CN1CCOCC1
GI50 [2]: 67 µM (inactive)
GI50 [5]: > 100 µM (inactive)
GI50 [9]: > 100 µM (inactive)
GI50 [7]: > 100 µM (inactive)
GI50 [8]: 81.8 µM (inactive)

CCCCCN(CCCCC)C(=O)[C@@H](CCC(=O)OCc1ccccc1)NC(=O)c1cc2ccccc2[nH]1
GI50 [2]: > 100 µM (inactive)
GI50 [3]: > 100 µM (inactive)
GI50 [4]: > 100 µM (inactive)
GI50 [5]: 8.85 µM (inactive)
GI50 [9]: > 100 µM (inactive)
GI50 [7]: > 100 µM (inactive)

CC1(Br)CC2OC3(Br)C=CC(C)(O)C2(CC1=O)C3(C)C (centres undefined)
GI50 [2]: > 100 µM (inactive)
GI50 [3]: > 100 µM (inactive)
GI50 [4]: > 100 µM (inactive)
GI50 [5]: 98.9 µM (inactive)
GI50 [7]: > 100 µM (inactive)
GI50 [8]: > 90.4 µM (inactive)

Cn1cc(-c2ccc(CCOC3CCCCO3)cc2)c2c(C#N)cccc21 (centres undefined)
GI50 [1]: > 100 µM (inactive)

O=C(c1ccccc1)c1ccc(C(c2c(O)c3ccccc3oc2=O)c2c(O)c3ccccc3oc2=O)cc1
GI50 [1]: 24.7 µM (inactive)

CN(C)c1ccc(/C=N/c2ccc(-c3nc4ccccc4o3)cc2)cc1
GI50 [1]: > 100 µM (inactive)

CCOC(=O)C1(C(N)=O)C(=O)c2ccncc2C1=O (centres undefined)
GI50 [1]: > 100 µM (inactive)

CCOC(CN(C)C(=S)Nc1cccc2ccccc12)OCC
GI50 [1]: > 10 µM (inactive)

CCOC(=O)c1sc2nc(SC)nc(Nc3ccc(OC)c(OC)c3)c2c1N
GI50 [1]: 17.7 µM (inactive)

CCCCOc1ccc(NC(=N)Nc2ccc(Cl)cc2)cc1
GI50 [1]: 5.5 µM (inactive)

Fc1ccc2nc3n(c2c1)C(c1c(Cl)cccc1Cl)SC3 (centres undefined)
GI50 [1]: > 100 µM (inactive)

OCC1OC(c2n[nH]c3c(O)ncnc23)C(O)C1O (centres undefined)
GI50 [1]: 33.8 µM (inactive)

COC(=O)/C=C1/OC(c2ccc(C)cc2)=C(Cl)C1=O
GI50 [1]: 22.9 µM (inactive)

CCC1c2[nH]c3ccccc3c2C[C@H]2C(=O)NC(COC(C)(C)C)C(=O)N12 (some centres undefined)
GI50 [1]: 25.8 µM (inactive)

CC(C)(O)[C@@H]1CCC(C)([C@H]2[C@@H](O)CC3(C)C4CC(OC5OC(CO)C(O)C(O)C5O)C5C(C)(C)[C@@H](OC6OCC(O)C(O)C6O)CC[C@@]56C[C@@]46CC[C@]23C)O1 (some centres undefined)
GI50 [2]: > 100 µM (inactive)
GI50 [3]: > 100 µM (inactive)
GI50 [4]: > 100 µM (inactive)
GI50 [5]: > 100 µM (inactive)
GI50 [6]: > 100 µM (inactive)
GI50 [7]: > 100 µM (inactive)
GI50 [8]: > 100 µM (inactive)
